Data from US7998961B2, “Hydantoin derivatives useful as antibacterial agents” (Schering Corporation, priority 2006, dated 2011).
Like-named read-outs stand apart in the source and are kept apart here.

Target: T1, LpxC enzyme (Escherichia coli, UniProt P0A725)
T1 sequence (P0A725 1-305): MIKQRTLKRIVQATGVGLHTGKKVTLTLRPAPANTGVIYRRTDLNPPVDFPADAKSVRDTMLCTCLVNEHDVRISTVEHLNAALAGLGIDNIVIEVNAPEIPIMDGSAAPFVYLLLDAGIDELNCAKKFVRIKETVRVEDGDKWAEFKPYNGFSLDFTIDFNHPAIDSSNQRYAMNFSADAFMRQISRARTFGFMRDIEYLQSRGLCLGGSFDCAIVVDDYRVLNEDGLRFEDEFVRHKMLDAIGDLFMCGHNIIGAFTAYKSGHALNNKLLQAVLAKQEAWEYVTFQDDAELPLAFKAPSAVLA
Test: standard LpxC enzyme assay (RapidFire high-throughput mass spectrometry)
Assay type: biochemical
Conditions: for inhibition at 25 µg/mL: compound at 25 ug/mL; for IC50: LpxC inhibitory activity
Experimental: The standard LpxC assay consists of 0.2 nM LpxC enzyme, 1.0 μM UDP-3-O—(R-3-hydroxymyristoyl)-N-acetylglucosamine, and test compound, in assay buffer and 2% DMSO. Assay buffer is comprised of 25 mM HEPES, pH 7.3, 150 mM NaCl, 2.0 mM DTT, and 0.01% BSA. The enzyme reaction is carried out in a 96-well assay plate, in a final volume of 102 μL. Solutions of test compounds are prepared in 100% DMSO. Reaction additions, in order, are (1) 2.0 μL compound solution, (2) 80 μL of assay buffer, (3) 10 μL of 10 μM UDP-3-O—(R-3-hydroxymyristoyl)-N-acetylglucosamine (in assay buffer) and, (4) 10 μL of LpxC enzyme (20 nM in assay buffer) to initiate the reaction. In positive control reactions, addition (1) has 2.0 μL of 100% DMSO (without compound); these reactions are used as the total signal (TSB) value. Reactions are incubated at room temperature for 60 minutes when 10 μL of 1 N HCl is added to stop the reaction. The plate is shaken by hand for 10 seconds to ensure complete quenching. Assay plates are sealed with foil tape, and stored at −80° C. for 24-48 hr prior to analysis.
The concentrations of substrate and product in the reaction mixtures are determined with BioTrove's proprietary RapidFire™ high-throughput mass spectrometry (HTMS). Assay mixtures are partially purified with reverse phase chromatography, where they are washed with water containing 5 mM ammonium formate and eluted onto the mass spectrometer in 80% acetonitrile, 20% water, and 5 mM ammonium formate. The mass spectrometry peak areas of the substrate and product are measured to determine the concentration of these analytes. The assay signal is the percentage of substrate that is converted to product. Percent inhibition, % I, in test samples is determined from the following equation: […]

[1] = read-out: LpxC enzyme assay rating (% inhibition at indicated concentrations of 100 and 25 ug/mL): 25
[2] = compound at 100 ug/mL, read-out: LpxC enzyme assay rating (% inhibition at indicated concentrations of 100 and 25 ug/mL): 100
[3] = read-out: Numerical LpxC inhibitory activity (% inhibition): 100

| Structure (SMILES) | IC50 (read-out: IC50 rating) [µM] | also measured |
| --- | --- | --- |
| CC1(CC(=O)Nc2ccccc2C#Cc2ccccc2)NC(=O)NC1=O (centres unmarked) [Compound 32] | – | inhibition at 25 µg/mL [1]: < 10% |
| CC1(CC(=O)Nc2ccc(C#Cc3ccccc3)cc2)NC(=O)NC1=O (centres unmarked) [Compound 33] | > 5 | – |
| CC1(CC(=O)NCCc2ccc(C#Cc3ccccc3)cc2)NC(=O)NC1=O (centres unmarked) [Compound 34] | – | inhibition at 25 µg/mL [1]: 10 to 30%; inhibition at 25 µg/mL (read-out: Numerical LpxC inhibitory activity (% inhibition): 25): 30% |
| CC1(CC(=O)NCCc2cccc(C#Cc3ccccc3)c2)NC(=O)NC1=O (centres unmarked) [Compound 35] | – | inhibition at 25 µg/mL [1]: < 10% |
| CC1(CC(=O)N2CCC(c3ccc(C#Cc4ccccc4)cc3)CC2)NC(=O)NC1=O (centres unmarked) [Compound 36] | 0.25 to 1 | IC50 (read-out: IC50 values): 0.6 µM |
| CC1(CC(=O)N2CCCC(c3ccc(C#Cc4ccccc4)cc3)C2)NC(=O)NC1=O (centres unmarked) [Compound 37] | 0.25 to 1 | – |
| CC1(CC(=O)N2CCC(O)(c3ccc(C#Cc4ccccc4)cc3)CC2)NC(=O)NC1=O (centres unmarked) [Compound 38] | 1 to 5 | – |
| CC1(CC(=O)N2CCN(c3ccc(C#Cc4ccccc4)cc3)CC2)NC(=O)NC1=O (centres unmarked) [Compound 39] | 0.25 to 1 | IC50 (read-out: IC50 values): 0.5 µM |
| C[C@@H](NC(=O)CC1(C)NC(=O)NC1=O)c1ccc(C#Cc2ccccc2)cc1 (some centres unmarked) [Compound 40] | > 5 | – |
| O=C1NC(=O)C(CC(=O)N2CCC(c3ccc(C#Cc4ccccc4)cc3)CC2)N1 (centres unmarked) [Compound 41] | – | inhibition at 100 µg/mL [2]: > 30%; inhibition at 100 µg/mL [3]: 60% |
| O=C1NC(=O)C(CC(=O)N2CCN(c3ccc(C#Cc4ccccc4)cc3)CC2)N1 (centres unmarked) [Compound 42] | – | inhibition at 100 µg/mL [2]: > 30% |
| CCC1(CC(=O)N2CCC(c3ccc(C#Cc4ccccc4)cc3)CC2)NC(=O)NC1=O (centres unmarked) [Compound 43] | 0.25 to 1 | IC50 (read-out: IC50 values): 0.7 µM |
| O=C1NC(=O)C(CC(=O)N2CCC(c3ccc(Br)cc3)CC2)N1 (centres unmarked) [Compound 45] | – | inhibition at 100 µg/mL [2]: > 30%; inhibition at 100 µg/mL [3]: 68% |
| CC1(CC(=O)N2CCC(c3ccc(Br)cc3)CC2)NC(=O)NC1=O (centres unmarked) [Compound 46] | – | inhibition at 100 µg/mL [2]: > 30% |
| CCC1(CC(=O)N2CCC(c3ccc(Br)cc3)CC2)NC(=O)NC1=O (centres unmarked) [Compound 47] | – | inhibition at 100 µg/mL [2]: > 30% |
| C[C@@H](O)[C@H](NC(=O)c1ccc(C#Cc2ccccc2)cc1)C1NC(=O)NC1=O (some centres unmarked) [Compound 64] | > 5 | – |
| C[C@H](O)[C@@H](NC(=O)c1ccc(C#Cc2ccccc2)cc1)C1NC(=O)NC1=O (some centres unmarked) [Compound 65] | > 5 | – |
| CC1(CNC(=O)c2ccc(C#Cc3ccccc3)cc2)NC(=O)NC1=O (centres unmarked) [Compound 66] | > 5 | – |
| C#Cc1ccc(C2CCN(C(=O)CC3(C)NC(=O)NC3=O)CC2)cc1 (centres unmarked) [Compound 75] | > 5 | – |
| CCc1ccc(C2CCN(C(=O)CC3(C)NC(=O)NC3=O)CC2)cc1 (centres unmarked) [Compound 76] | > 5 | – |
| CC1(CC(=O)N2CCC(c3ccc(CCN4CCOCC4)cc3)CC2)NC(=O)NC1=O (centres unmarked) [Compound 77] | > 5 | – |
| CC1(CC(=O)N2CCC(c3ccc(-c4ccccc4)cc3)CC2)NC(=O)NC1=O (centres unmarked) [Compound 78] | > 5 | – |
| CC1(CC(=O)N2CCC(c3ccc(-c4ccncc4)cc3)CC2)NC(=O)NC1=O (centres unmarked) [Compound 79] | > 5 | – |
